From PubChem BioAssay AID256 (DTP/NCI, 2004)
Where “and” joins values, the source holds several entries; their conditions need not be identical. Identical values can stand only once. Toxic doses and inconclusive results are not listed.

Test system: CD2F1 mice, L1210 leukemia ip, survival T/C
Test: NCI In Vivo Anticancer Drug Screen. Data for tumor model L1210 Leukemia (intraperitoneal) in CD2F1 (CDF1) mice
Settings: higher = longer survival
Procedure, shortened: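 Vehicle-treated tumor-bearing mice served as controls (C) for compound-treated mice (T). Reported figure is T divided by C.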

[1] = endpoint: mean survival time, dose: 100.0 mg/kg/injection, schedule: Q04DX003 (ip), vehicle: saline
[2] = endpoint: mean survival time, dose: 200.0 mg/kg/injection, schedule: Q04DX003 (ip), vehicle: saline
[3] = endpoint: mean survival time, dose: 400.0 mg/kg/injection, schedule: Q04DX003 (ip), vehicle: saline
[4] = endpoint: mean survival time, dose: 100.0 mg/kg/injection, schedule: Q04DX003 (ip), vehicle: saline with Tween-80
[5] = endpoint: mean survival time, dose: 200.0 mg/kg/injection, schedule: Q04DX003 (ip), vehicle: saline with Tween-80
[6] = endpoint: mean survival time, dose: 400.0 mg/kg/injection, schedule: Q04DX003 (ip), vehicle: saline with Tween-80

O=C(COc1ccc(Cl)c(Cl)c1)NCc1cccc([N+](=O)[O-])c1 was tested, and the T/C (endpoint: mean survival time, dose: 75.0 mg/kg/injection, schedule: Q01DX001 (ip), vehicle: saline with Tween-80) was 93 % of control, the T/C (endpoint: mean survival time, dose: 150.0 mg/kg/injection, schedule: Q01DX001 (ip), vehicle: saline with Tween-80) was 88 % of control and the T/C (endpoint: mean survival time, dose: 300.0 mg/kg/injection, schedule: Q01DX001 (ip), vehicle: saline with Tween-80) was 86 % of control.

With OCC1OC(O)C(F)C(O)C1O (configuration not stated) the T/C (endpoint: mean survival time, dose: 50.0 mg/kg/injection, schedule: Q04DX003 (ip), vehicle: saline) was 108 % of control, the T/C [1] was 104 % of control and the T/C [2] was 101 % of control. For the same compound, the T/C [3] was 101 % of control.

In the case of CNP1(N(C)C)=NP(NC)(N(C)C)=NP(NC)(N(C)C)=N1 (configuration not stated), the T/C [1] is reported as 98 % of control and the T/C [2] is reported as 98 % of control.

With COc1ccc(NC(=O)Nc2ccc(C)cc2C)cc1 the T/C (endpoint: mean survival time, dose: 100.0 mg/kg/injection, schedule: Q01DX009 (ip), vehicle: saline with Tween-80) was 86 % of control and the T/C (endpoint: mean survival time, dose: 200.0 mg/kg/injection, schedule: Q01DX009 (ip), vehicle: saline with Tween-80) was 88 % of control.

With COc1ccc(/C=N/NC(=O)c2ccccc2)cc1OC the T/C (endpoint: mean survival time, dose: 12.5 mg/kg/injection, schedule: Q01DX009 (ip), vehicle: other) was 98 % of control, the T/C (endpoint: mean survival time, dose: 25.0 mg/kg/injection, schedule: Q01DX009 (ip), vehicle: other) was 105 % of control and the T/C (endpoint: mean survival time, dose: 50.0 mg/kg/injection, schedule: Q01DX009 (ip), vehicle: other) was 105 % of control. The T/C (endpoint: mean survival time, dose: 100.0 mg/kg/injection, schedule: Q01DX009 (ip), vehicle: other) was 107 % of control and the T/C (endpoint: mean survival time, dose: 200.0 mg/kg/injection, schedule: Q01DX009 (ip), vehicle: other) was 107 % of control.

c1c2c(cc3c1OCO3)CNCC2 was tested, and the T/C (endpoint: mean survival time, dose: 100.0 mg/kg/injection, schedule: Q01DX001 (ip), vehicle: saline) was 102 % of control.

In the case of CC(=O)Oc1ccc(/C=N/NC(N)=S)nc1, the T/C (endpoint: mean survival time, dose: 37.5 mg/kg/injection, schedule: Q01DX009 (ip), vehicle: saline with Tween-80) is reported as 160 % of control, the T/C (endpoint: mean survival time, dose: 75.0 mg/kg/injection, schedule: Q01DX009 (ip), vehicle: saline with Tween-80) is reported as 152 % of control and the T/C (endpoint: mean survival time, dose: 150.0 mg/kg/injection, schedule: Q01DX009 (ip), vehicle: saline with Tween-80) is reported as 165 % of control.

In the case of COc1ccc2cc1Oc1ccc(cc1)C[C@@H]1c3cc(c(OC)cc3CCN1C)Oc1c(OC)c(OC)cc3c1[C@H](C2)N(C)CC3, the T/C (endpoint: mean survival time, dose: 50.0 mg/kg/injection, schedule: Q04DX002 (ip), vehicle: saline with Tween-80) is reported as 94 % of control, the T/C (endpoint: mean survival time, dose: 100.0 mg/kg/injection, schedule: Q04DX002 (ip), vehicle: saline with Tween-80) is reported as 94 % of control and the T/C (endpoint: mean survival time, dose: 200.0 mg/kg/injection, schedule: Q04DX002 (ip), vehicle: saline with Tween-80) is reported as 94 % of control. For the same compound, the T/C (endpoint: mean survival time, dose: 400.0 mg/kg/injection, schedule: Q04DX002 (ip), vehicle: saline with Tween-80) was 90 % of control.

With COC(=O)C(=O)c1ccccc1 the T/C [1] was 96 % of control, the T/C [2] was 102 % of control and the T/C [3] was 103 % of control.

CC(=O)C(C(C)=O)C(c1ccccn1)C(C(C)=O)C(C)=O was tested, and the T/C [4] was 106 % of control, the T/C [5] was 98 % of control and the T/C [6] was 93 % of control.

With O=C1c2ccccc2C(=O)N1C1CCCCC1 the T/C [4] was 100 % of control, the T/C [5] was 95 % of control and the T/C [6] was 95 % of control.

O=C1C=CC(=O)O1 (tested in a mixture with another compound) was tested, and the T/C (endpoint: mean survival time, dose: 1.56 mg/kg/injection, schedule: Q01DX001 (ip), vehicle: other) was 109 % of control, the T/C (endpoint: mean survival time, dose: 1.56 mg/kg/injection, schedule: Q04DX003 (ip), vehicle: other) was 95 % of control and the T/C (endpoint: mean survival time, dose: 3.12 mg/kg/injection, schedule: Q01DX001 (ip), vehicle: other) was 105 % of control. The T/C (endpoint: mean survival time, dose: 3.12 mg/kg/injection, schedule: Q04DX003 (ip), vehicle: other) was 97 % of control, the T/C (endpoint: mean survival time, dose: 6.25 mg/kg/injection, schedule: Q04DX003 (ip), vehicle: other) was 97 % of control and the T/C (endpoint: mean survival time, dose: 50.0 mg/kg/injection, schedule: Q01DX001 (ip), vehicle: saline) was 115 % of control. For the same compound, the T/C (endpoint: mean survival time, dose: 200.0 mg/kg/injection, schedule: Q01DX001 (ip), vehicle: saline) was 117 % of control, the T/C (endpoint: mean survival time, dose: 400.0 mg/kg/injection, schedule: Q01DX001 (ip), vehicle: saline) was 117 % of control and the T/C (endpoint: mean survival time, dose: 1000.0 mg/kg/injection, schedule: Q01DX001 (ip), vehicle: saline) was 121 % of control.

For CCCCCOC(=O)Nc1cccc(O)c1, the T/C [4] was 95 % of control and the T/C [5] was 94 % of control.

For COC(=O)C1CC2C(CCC3C(C)(C(=O)OC)CCCC23C)C(=O)C1(O)C(C)C (configuration not stated), the T/C [4] was 101 % of control, the T/C [5] was 105 % of control and the T/C [6] was 91 % of control.

In the case of C1CCC(C2CCCC[N-]2)[N-]C1.CC(C)C([NH-])C(=O)O.[Cl][Pt] (configuration not stated), the T/C (endpoint: median survival time, dose: 10.0 mg/kg/injection, schedule: Q04DX003 (ip), vehicle: saline) is reported as 101 % of control, the T/C (endpoint: median survival time, dose: 20.0 mg/kg/injection, schedule: Q04DX003 (ip), vehicle: saline) is reported as 102 % of control and the T/C (endpoint: median survival time, dose: 40.0 mg/kg/injection, schedule: Q04DX003 (ip), vehicle: saline) is reported as 100 % of control. The T/C (endpoint: median survival time, dose: 80.0 mg/kg/injection, schedule: Q04DX003 (ip), vehicle: saline) was 94 % of control and 96 % of control and the T/C (endpoint: median survival time, dose: 160.0 mg/kg/injection, schedule: Q04DX003 (ip), vehicle: saline) was 97 % of control.
